In ChEMBL document CHEMBL1151398, “New taxanes from Taxus brevifolia” (1982):

Experiments:
[1] = system: Astrocyte; experiment: Astrocyte reversal activity in astrocytes; assay type: functional; conditions: read-out: ED50 (the source's name)
[2] = system: KB; experiment: Cytotoxicity against human KB cells; assay type: functional; design: concentration or dose not given beside the values

EC50 [1] [µg/mL] | Structure (SMILES) | Activity [2] [%]
< 0.01 | CC(=O)O[C@H]1C(=O)[C@@]2(C)[C@H]([C@H](OC(=O)c3ccccc3)[C@]3(O)C[C@H](OC(=O)[C@H](O)[C@@H](NC(=O)c4ccccc4)c4ccccc4)C(C)=C1C3(C)C)[C@]1(OC(C)=O)CO[C@@H]1C[C@@H]2O [PACLITAXEL] | 31
28 | C=C1[C@@H](O)C[C@H](OC(C)=O)[C@@]2(C)[C@@H](OC(C)=O)[C@H](OC(C)=O)C3=C(C)[C@@H](OC(C)=O)C[C@@H]([C@@H](OC(C)=O)[C@H]12)C3(C)C [DECINNAMOYLTAXININE J] | 16
< 0.01 | CC(=O)O[C@H]1C[C@H]2OC[C@@]2(OC(C)=O)[C@H]2[C@H](OC(=O)c3ccccc3)[C@]3(O)C[C@H](OC(=O)[C@H](OC(C)=O)[C@@H](NC(=O)c4ccccc4)c4ccccc4)C(C)=C([C@@H](O)C(=O)[C@]12C)C3(C)C | 16

Structure (SMILES) | EC50 [1] [µg/mL] | Activity [2] [%]
CC(=O)O[C@@]12CO[C@@H]1C[C@H](O)[C@@]1(C)C(=O)[C@H](O)C3=C(C)[C@@H](O)C[C@@](O)([C@@H](OC(=O)c4ccccc4)[C@H]21)C3(C)C | 1 | 16
CC(=O)O[C@H]1C(=O)[C@]2(C)[C@@H](OC(C)=O)C[C@H]3OC[C@@]3(OC(C)=O)[C@H]2[C@H](OC(=O)c2ccccc2)[C@]2(O)C[C@H](OC(=O)[C@H](OC(C)=O)[C@@H](NC(=O)c3ccccc3)c3ccccc3)C(C)=C1C2(C)C | 0.03 | 16
